{"source": "paper PMC4946967", "about": "(ACS chemical biology, 2016)", "key": {"RNR-β": {"molecular_target": "T1, RNR-β (Homo sapiens, UniProt P31350)", "T1 sequence (P31350 1-389)": "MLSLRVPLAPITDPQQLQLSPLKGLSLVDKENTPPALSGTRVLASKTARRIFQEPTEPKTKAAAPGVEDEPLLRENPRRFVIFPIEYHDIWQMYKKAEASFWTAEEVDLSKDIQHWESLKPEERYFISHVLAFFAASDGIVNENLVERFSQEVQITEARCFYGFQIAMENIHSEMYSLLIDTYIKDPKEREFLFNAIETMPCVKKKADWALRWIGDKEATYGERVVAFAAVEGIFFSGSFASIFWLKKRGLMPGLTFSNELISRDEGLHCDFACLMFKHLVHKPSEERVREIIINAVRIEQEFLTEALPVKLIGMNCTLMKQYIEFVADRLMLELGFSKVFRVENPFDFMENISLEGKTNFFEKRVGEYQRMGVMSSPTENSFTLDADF", "assay": "RNR β-specific activity assay", "type": "biochemical"}, "RNR-α [1]": {"molecular_target": "T2, RNR-α (Homo sapiens, UniProt P23921)", "T2 sequence (P23921 1-792)": "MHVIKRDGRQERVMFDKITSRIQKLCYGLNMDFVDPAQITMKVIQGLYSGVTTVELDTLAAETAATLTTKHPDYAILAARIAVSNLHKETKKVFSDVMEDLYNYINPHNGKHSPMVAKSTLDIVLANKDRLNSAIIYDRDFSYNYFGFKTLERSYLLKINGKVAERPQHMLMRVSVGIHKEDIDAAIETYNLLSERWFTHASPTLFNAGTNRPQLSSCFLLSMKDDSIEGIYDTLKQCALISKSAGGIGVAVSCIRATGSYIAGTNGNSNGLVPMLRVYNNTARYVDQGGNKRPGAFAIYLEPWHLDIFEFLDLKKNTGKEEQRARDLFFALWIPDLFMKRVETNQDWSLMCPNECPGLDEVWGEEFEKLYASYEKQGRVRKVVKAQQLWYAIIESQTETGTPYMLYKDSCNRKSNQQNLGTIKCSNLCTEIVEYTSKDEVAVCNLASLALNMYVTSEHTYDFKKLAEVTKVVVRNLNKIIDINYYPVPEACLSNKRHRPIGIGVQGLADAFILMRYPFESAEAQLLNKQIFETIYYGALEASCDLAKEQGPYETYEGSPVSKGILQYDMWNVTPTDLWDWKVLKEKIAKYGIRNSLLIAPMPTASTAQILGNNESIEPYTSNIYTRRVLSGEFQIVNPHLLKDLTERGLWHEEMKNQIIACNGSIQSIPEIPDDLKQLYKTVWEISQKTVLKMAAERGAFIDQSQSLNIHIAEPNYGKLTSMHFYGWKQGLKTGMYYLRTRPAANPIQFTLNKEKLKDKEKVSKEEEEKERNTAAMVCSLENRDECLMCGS", "settings": "cited from earlier work"}, "RNR-α [2]": {"molecular_target": "T2, RNR-α", "assay": "RNR-α-specific CDP/ATP-reductase activity inhibition assay", "type": "biochemical"}, "D57N-human RNR-α mutant": {"molecular_target": "T3, D57N-human RNR-α mutant (Homo sapiens, UniProt P23921, D57N)", "T3 sequence (P23921 1-792 D57N)": "T2 sequence (P23921 1-792) with D57N", "settings": "cited from earlier work"}, "E. coli RNR": {"system": "E. coli RNR", "settings": "cited from earlier work"}, "[3]": {"molecular_target": "T4, mutant (D57N)-mouse(m)RNR-α (Mus musculus, UniProt P07742, D57N)", "T4 sequence (P07742 1-792 D57N)": "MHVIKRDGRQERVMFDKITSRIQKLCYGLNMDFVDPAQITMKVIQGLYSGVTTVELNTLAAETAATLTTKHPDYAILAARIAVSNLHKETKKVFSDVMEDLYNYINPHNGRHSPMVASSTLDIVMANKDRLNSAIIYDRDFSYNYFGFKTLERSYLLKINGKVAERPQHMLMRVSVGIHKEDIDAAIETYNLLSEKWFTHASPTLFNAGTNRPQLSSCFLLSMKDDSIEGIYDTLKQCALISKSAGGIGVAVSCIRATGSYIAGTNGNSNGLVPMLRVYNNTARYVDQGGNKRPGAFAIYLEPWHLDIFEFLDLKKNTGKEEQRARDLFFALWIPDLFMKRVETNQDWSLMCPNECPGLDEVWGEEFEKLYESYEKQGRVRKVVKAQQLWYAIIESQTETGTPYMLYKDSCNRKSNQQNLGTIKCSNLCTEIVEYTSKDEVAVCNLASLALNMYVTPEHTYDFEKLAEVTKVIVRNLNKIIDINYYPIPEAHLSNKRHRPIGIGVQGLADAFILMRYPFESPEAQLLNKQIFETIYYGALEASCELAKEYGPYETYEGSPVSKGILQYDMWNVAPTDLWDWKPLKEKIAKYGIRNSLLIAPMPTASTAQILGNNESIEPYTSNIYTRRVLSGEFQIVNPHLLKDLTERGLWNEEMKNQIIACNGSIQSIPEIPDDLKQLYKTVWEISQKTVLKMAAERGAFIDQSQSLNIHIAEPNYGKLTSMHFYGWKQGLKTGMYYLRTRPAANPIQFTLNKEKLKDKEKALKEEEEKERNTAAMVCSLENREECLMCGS", "type": "cell-based", "settings": "3 h treatment; 5, 50, 300 μM ClF, ClA, FlUMP; D57N-mRNR-α 3T3 cells"}, "[4]": {"system": "Flp-In 293 T-REx cells expressing RNR-α-Flag"}, "[5]": {"system": "Flp-In 293 T-REx cells expressing D57N-α-Flag"}}, "note": "Substitutions are numbered along the chain they refer to. Entries after “also recorded” stand apart in the source; their conditions may differ."}
{"smiles": "NC(=S)N/N=C/c1ncccc1N", "note": "[triapine]", "values": [{"measurement": "β-specific activity", "setting": "RNR-β", "result": "suppressed"}]}
{"smiles": "Nc1ccn([C@@H]2O[C@H](COP(=O)(O)OP(=O)(O)OP(=O)(O)O)[C@@H](O)C2(F)F)c(=O)n1", "note": "[F2CTP]", "values": [{"measurement": "effect on RNR-α oligomeric state or holoenzyme activity", "setting": "RNR-α [1]", "result": "no effect"}]}
{"smiles": "Nc1nc(Cl)nc2c1ncn2[C@@H]1O[C@H](COP(=O)(O)OP(=O)(O)O)[C@@H](O)[C@@H]1F", "note": "[ClFDP, clofarabine diphosphate]", "values": [{"measurement": "higher affinity than ClADP and FlUDP", "setting": "RNR-α [2]", "result": "10–100 fold"}, {"measurement": "inhibition of D57N-α-specific RNR activity", "setting": "D57N-human RNR-α mutant", "result": "can inhibit; also recorded: able to inhibit both wt- and D57N-α with similar potency"}, {"measurement": "inhibition of E. coli RNR", "setting": "E. coli RNR", "result": "failed to inhibit"}]}
{"smiles": "Nc1nc(Cl)nc2c1ncn2[C@@H]1O[C@H](CO)[C@@H](O)[C@@H]1F", "note": "[ClF, clofarabine]", "values": [{"measurement": "RNR reductase activity in D57N-α-expressing lines after drug treatment", "setting": "[3]", "result": "resistance"}, {"measurement": "effect of RNR-α overexpression on cytotoxicity relative to noninduced cells", "setting": "[4]", "result": "small effect on the EC50"}, {"measurement": "protection against cytotoxicity upon tet induction relative to noninduced", "setting": "[5]", "result": "> 20", "unit": "fold"}]}
